Values joined by “and” are separate entries in the source; they are usually repeats but may differ in a detail not shown here. Equal entries are not always repeated. Where two headings read alike, the source gives them in different places. Some results are limits rather than exact numbers.

For one experiment, the target named is Human mTOR (FLAG-TOR) (Homo sapiens, UniProt P42345). In words: mTOR kinase assay (DELFIA format, purified enzyme). Format: biochemical.
Experiment [1] relates to human breast MDA-MB-361 tumor cell line. In words: In vitro cell culture growth assay (MTS), MDA-MB-361. The note with it: Homo sapiens, MTS cell growth assay, three days after drug treatment, read-out: IC50 MDA-MB-361. The class given is cell-based.
In the next experiment the target is PI3K-α (Homo sapiens, UniProt P42336). In words: PI3K-alpha fluorescence polarization assay. The note with it: read-out: IC50 PI3Kα. (Fluorescence polarisation rises when a labelled molecule tumbles more slowly, as on binding a larger partner.)
The target of the next experiment is PI3K-γ (Homo sapiens, UniProt P48736). Kind of experiment: PI3K-gamma fluorescence polarization assay. The note with it: read-out: IC50 PI3Kγ.
Experiment [2] has as its system human prostate PC3-mm2 tumor cell line. In words: In vitro cell culture growth assay (MTS), PC3-mm2. Format: cell-based. The note with it: Homo sapiens, PC3MM2, 72 h, MTS cell growth assay, three days after drug treatment, read-out: IC50 PC3-mm2. A general note: Formazan colour is commonly taken as a measure of viable cells.

PI3K-α, sequence (P42336 whole entry, species assumed): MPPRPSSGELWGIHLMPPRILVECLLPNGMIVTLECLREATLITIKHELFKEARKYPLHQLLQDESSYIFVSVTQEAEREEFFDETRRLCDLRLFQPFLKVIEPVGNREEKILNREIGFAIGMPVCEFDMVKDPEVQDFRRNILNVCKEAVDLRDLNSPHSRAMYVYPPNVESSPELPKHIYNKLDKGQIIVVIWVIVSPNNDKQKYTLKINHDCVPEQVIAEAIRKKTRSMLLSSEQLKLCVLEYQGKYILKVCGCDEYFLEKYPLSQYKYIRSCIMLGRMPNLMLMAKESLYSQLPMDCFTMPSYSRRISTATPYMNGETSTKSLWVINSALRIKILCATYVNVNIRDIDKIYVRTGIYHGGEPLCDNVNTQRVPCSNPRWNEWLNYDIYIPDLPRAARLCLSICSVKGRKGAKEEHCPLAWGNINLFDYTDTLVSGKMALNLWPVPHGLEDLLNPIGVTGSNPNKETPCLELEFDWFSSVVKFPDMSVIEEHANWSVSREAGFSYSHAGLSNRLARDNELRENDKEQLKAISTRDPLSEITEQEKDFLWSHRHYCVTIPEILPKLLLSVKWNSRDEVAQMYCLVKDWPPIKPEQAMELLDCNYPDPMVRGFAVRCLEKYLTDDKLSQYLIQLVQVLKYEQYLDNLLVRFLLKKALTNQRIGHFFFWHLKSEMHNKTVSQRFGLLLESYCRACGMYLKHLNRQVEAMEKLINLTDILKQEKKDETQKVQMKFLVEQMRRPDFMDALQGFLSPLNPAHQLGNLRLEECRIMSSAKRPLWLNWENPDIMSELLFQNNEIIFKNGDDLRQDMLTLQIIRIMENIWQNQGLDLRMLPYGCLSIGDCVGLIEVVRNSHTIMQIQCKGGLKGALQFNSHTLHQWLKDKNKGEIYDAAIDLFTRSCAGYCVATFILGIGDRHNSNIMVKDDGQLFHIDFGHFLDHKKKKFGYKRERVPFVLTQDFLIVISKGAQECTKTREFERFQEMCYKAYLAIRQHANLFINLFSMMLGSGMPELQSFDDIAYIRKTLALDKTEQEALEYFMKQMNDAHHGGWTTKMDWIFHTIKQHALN
PI3K-α, sequence (P27986 whole entry partner, species assumed): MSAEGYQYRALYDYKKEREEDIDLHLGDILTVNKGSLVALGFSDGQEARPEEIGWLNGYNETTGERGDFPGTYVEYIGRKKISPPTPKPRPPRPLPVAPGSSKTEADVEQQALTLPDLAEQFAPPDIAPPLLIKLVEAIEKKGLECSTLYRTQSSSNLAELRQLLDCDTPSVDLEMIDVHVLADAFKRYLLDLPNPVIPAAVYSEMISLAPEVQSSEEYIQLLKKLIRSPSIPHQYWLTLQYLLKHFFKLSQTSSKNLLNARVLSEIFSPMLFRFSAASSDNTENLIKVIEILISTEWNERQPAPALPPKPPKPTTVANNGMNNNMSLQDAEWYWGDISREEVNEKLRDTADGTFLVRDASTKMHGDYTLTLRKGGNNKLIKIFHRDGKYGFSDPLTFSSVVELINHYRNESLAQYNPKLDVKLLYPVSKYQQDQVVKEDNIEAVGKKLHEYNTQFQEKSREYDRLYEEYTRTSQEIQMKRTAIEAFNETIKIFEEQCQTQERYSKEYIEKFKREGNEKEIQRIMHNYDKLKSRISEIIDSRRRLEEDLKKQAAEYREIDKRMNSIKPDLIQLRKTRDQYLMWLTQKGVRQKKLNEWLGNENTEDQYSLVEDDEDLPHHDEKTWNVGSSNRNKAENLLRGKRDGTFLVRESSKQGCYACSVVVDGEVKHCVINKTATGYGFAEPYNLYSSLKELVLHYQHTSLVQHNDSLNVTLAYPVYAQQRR
PI3K-γ, sequence (P48736 whole entry, species assumed): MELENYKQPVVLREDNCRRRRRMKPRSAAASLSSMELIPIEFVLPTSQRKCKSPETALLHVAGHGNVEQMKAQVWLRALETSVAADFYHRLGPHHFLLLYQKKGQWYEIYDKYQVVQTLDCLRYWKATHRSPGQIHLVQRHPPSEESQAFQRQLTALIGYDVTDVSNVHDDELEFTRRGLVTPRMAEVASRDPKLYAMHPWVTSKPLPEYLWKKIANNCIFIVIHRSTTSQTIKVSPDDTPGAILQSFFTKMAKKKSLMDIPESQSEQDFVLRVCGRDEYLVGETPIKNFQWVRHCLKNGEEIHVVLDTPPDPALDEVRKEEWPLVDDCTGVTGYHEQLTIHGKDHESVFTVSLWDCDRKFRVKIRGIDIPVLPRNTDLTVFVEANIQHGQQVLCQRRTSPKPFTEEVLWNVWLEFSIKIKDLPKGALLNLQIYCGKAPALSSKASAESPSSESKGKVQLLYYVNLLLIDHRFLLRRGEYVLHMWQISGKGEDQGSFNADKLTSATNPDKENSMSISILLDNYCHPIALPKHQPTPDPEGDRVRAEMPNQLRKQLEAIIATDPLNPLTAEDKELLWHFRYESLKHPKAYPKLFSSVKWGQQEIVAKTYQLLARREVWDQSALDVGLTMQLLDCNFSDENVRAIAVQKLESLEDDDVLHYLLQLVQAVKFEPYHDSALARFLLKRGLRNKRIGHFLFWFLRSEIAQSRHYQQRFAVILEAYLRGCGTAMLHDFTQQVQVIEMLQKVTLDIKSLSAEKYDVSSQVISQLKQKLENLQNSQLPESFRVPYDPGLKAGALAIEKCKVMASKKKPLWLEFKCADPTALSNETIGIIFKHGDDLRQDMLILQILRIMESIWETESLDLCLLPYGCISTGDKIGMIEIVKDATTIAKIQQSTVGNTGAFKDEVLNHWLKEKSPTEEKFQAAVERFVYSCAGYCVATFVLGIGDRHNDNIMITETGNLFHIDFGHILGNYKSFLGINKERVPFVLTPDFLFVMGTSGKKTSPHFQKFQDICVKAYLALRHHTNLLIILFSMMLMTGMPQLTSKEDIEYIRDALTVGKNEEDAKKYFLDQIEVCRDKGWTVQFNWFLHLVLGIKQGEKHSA
Human mTOR (FLAG-TOR), sequence (P42345 1360-2549 limits assumed): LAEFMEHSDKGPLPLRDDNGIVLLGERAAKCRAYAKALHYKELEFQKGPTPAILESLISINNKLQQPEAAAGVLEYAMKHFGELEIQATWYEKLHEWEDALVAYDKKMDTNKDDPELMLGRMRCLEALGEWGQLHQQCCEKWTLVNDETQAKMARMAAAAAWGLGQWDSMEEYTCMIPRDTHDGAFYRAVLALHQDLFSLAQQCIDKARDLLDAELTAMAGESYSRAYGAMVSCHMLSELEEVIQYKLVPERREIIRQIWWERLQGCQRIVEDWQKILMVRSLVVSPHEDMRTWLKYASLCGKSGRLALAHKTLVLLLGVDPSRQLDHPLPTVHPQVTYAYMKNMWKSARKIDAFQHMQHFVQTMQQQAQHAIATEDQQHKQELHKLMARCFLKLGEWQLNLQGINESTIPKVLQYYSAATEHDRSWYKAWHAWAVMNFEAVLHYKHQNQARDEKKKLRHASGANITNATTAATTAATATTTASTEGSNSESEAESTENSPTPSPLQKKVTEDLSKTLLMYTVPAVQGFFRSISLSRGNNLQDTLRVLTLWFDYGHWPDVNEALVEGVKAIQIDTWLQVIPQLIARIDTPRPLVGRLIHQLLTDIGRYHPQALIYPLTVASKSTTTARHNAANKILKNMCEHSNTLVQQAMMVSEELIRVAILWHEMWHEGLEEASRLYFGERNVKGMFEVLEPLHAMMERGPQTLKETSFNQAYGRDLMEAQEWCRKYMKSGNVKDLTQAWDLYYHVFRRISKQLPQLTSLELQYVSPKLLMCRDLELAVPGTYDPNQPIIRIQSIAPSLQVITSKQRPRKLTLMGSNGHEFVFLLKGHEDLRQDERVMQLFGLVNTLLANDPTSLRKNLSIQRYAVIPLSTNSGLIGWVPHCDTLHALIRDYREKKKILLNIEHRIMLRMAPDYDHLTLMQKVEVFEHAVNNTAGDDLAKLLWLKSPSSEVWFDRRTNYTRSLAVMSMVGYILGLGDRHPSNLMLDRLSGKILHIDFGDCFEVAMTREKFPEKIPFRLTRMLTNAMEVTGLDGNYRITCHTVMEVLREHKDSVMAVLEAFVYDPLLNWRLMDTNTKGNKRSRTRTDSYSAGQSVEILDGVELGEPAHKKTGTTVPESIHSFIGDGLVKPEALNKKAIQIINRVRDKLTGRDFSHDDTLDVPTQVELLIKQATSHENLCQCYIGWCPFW

For the molecule `CCCCc1nc(-c2ccc(NC(=O)Nc3ccc(C(=O)N4CCC(N(C)C)CC4)cc3)cc2)nc(N2CCOCC2)n1` [Example 241, 1-[4-(4-butyl-6-morpholin-4-yl-1,3,5-triazin-2-yl)phenyl]-3-(4-{[4-(dimethylamino)piperidin-1-yl]carbonyl}phenyl)urea], the IC50 (in general, the concentration that gives 50% inhibition) worked out at 9 nM at Human mTOR (FLAG-TOR) (read-out: IC50 mTOR); 24 nM in experiment [1] (MDA-MB-361, 72 h); 6 nM at PI3K-α; 23 nM on PI3K-γ; 135 nM in experiment [2].
On to `CCc1nc(-c2ccc(NC(=O)Nc3ccc(C(=O)N(C)CCN(C)C)cc3)cc2)nc(N2CCOCC2)n1` [Example 242, N-[2-(dimethylamino)ethyl]-4-({[4-(4-ethyl-6-morpholin-4-yl-1,3,5-triazin-2-yl)phenyl]carbamoyl}amino)-N-methylbenzamide], for which the 50% inhibitory concentration (IC50) at Human mTOR (FLAG-TOR) (read-out: IC50 mTOR) was found to be 7 nM; in experiment [1] (MDA-MB-361, 72 h) it was 11 nM; at PI3K-α it was 2 nM; at PI3K-γ, 24 nM; in experiment [2], 49 nM.
As for `C=Cc1ccc(NC(=O)Nc2ccc(-c3nc(N4CCOCC4)nc(N4C5CCC4COC5)n3)cc2)cc1` [Example 249, 1-(4-ethenylphenyl)-3-{4-[4-morpholin-4-yl-6-(3-oxa-8-azabicyclo[3.2.1]oct-8-yl)-1,3,5-triazin-2-yl]phenyl}urea], the IC50 at Human mTOR (FLAG-TOR) (read-out: IC50 mTOR) was 2 nM and 2.5 nM; in experiment [1] (MDA-MB-361, 72 h) it was 92 nM; at PI3K-α it was 25 nM; on PI3K-γ, 216 nM; on PI3K-γ (listed as 726) it was 216 nM; in experiment [2] (PC3-mm2 cells), 142 nM. In experiment [2], the IC50 was 142 nM.
Take `CN1CCN(Cc2ccc(NC(=O)Nc3ccc(-c4nc(N5CCOCC5)nc(N5C6CCC5COC6)n4)cc3)cc2)CC1` [Example 250, 1-{4-[(4-methylpiperazin-1-yl)methyl]phenyl}-3-{4-[4-morpholin-4-yl-6-(3-oxa-8-azabicyclo[3.2.1]oct-8-yl)-1,3,5-triazin-2-yl]phenyl}urea]: the IC50 is 0.9 nM and 0.805 nM against Human mTOR (FLAG-TOR) (IC50 mTOR); 14 nM in experiment [1] (MDA-MB-361, 72 h, MDA-MB-361 cells); 14 nM in experiment [1] (MDA-MB-361, 72 h); 21 nM on PI3K-α; 190 nM at PI3K-γ; 190 nM on PI3K-γ (listed as 727). For the same molecule, the IC50 in experiment [2] (PC3-mm2 cells) and in experiment [2] was 31 nM in each case.
Consider `CCCCc1nc(-c2ccc(NC(=O)Nc3ccc(CNCCN(C)C)cc3)cc2)nc(N2CCOCC2)n1` [Example 252, 1-[4-(4-butyl-6-morpholin-4-yl-1,3,5-triazin-2-yl)phenyl]-3-[4-({[2-(dimethylamino)ethyl]amino}methyl)phenyl]urea], for which the IC50 on Human mTOR (FLAG-TOR) (read-out: IC50 mTOR) amounted to 18 nM; in experiment [1] (MDA-MB-361, 72 h), 219 nM; at PI3K-α it was 22 nM; at PI3K-γ, 184 nM; in experiment [2], 747 nM.
On to `CCCCc1nc(-c2ccc(NC(=O)Nc3ccc(C(=O)Nc4ccc(N5CCN(C)CC5)cc4)cc3)cc2)nc(N2CCOCC2)n1` [Example 253, 4-({[4-(4-butyl-6-morpholin-4-yl-1,3,5-triazin-2-yl)phenyl]carbamoyl}amino)-N-[4-(4-methylpiperazin-1-yl)phenyl]benzamide], for which the IC50 at Human mTOR (FLAG-TOR) (read-out: IC50 mTOR) worked out at 9 nM; in experiment [1] (MDA-MB-361, 72 h) it was 12 nM; at PI3K-α it was 8 nM; on PI3K-γ, 267 nM; in experiment [2] it was 574 nM.
As for `CCCCc1nc(-c2ccc(NC(=O)Nc3ccc(C=O)cc3)cc2)nc(N2CCOCC2)n1` [Example 255, 1-[4-(4-butyl-6-morpholin-4-yl-1,3,5-triazin-2-yl)phenyl]-3-(4-formylphenyl)urea], the IC50 on Human mTOR (FLAG-TOR) (read-out: IC50 mTOR) came out at 16 nM; in experiment [1] (MDA-MB-361, 72 h) it was 174 nM; at PI3K-α, 48 nM; at PI3K-γ, 85 nM; in experiment [2] it was 328 nM.
As for `CN(C)CCOc1ccc(NC(=O)Nc2ccc(-c3nc(N4CCOCC4)nc(N4C5CCC4COC5)n3)cc2)cc1` [Example 266, 1-{4-[2-(dimethylamino)ethoxy]phenyl}-3-{4-[4-morpholin-4-yl-6-(3-oxa-8-azabicyclo[3.2.1]oct-8-yl)-1,3,5-triazin-2-yl]phenyl}urea], the IC50 at Human mTOR (FLAG-TOR) (read-out: IC50 mTOR) was 1.7 nM and 1.85 nM; in experiment [1] (72 h, MDA-MB-361 cells) it was less than 31 nM; at PI3K-α, 16 nM; at PI3K-α (listed as 729), 14.5 nM; at PI3K-γ, 93 nM; on PI3K-γ (listed as 729), 100 nM. In experiment [2] (PC3-mm2 cells), the IC50 was less than 31 nM.
In the case of `O=C(Nc1ccncc1)Nc1ccc(-c2nc(CCC3OCCCO3)nc(N3CCOCC3)n2)cc1` [Example 267, 1-(4-{4-[2-(1,3-dioxan-2-yl)ethyl]-6-morpholin-4-yl-1,3,5-triazin-2-yl}phenyl)-3-pyridin-4-ylurea], the IC50 was 3.5 nM and 4.3 nM on Human mTOR (FLAG-TOR) (read-out: IC50 mTOR); 94 nM in experiment [1] (MDA-MB-361, 72 h); 17 nM on PI3K-α; 15.5 nM at PI3K-α (listed as 730); 58 nM at PI3K-γ; 64.5 nM at PI3K-γ (listed as 730). Besides, the IC50 in experiment [2] (PC3-mm2 cells) and in experiment [2] was 200 nM each time.
As to `CCCCc1nc(-c2ccc(NC(=O)Nc3ccc(C(=O)N4CCC(Cc5ccccc5)CC4)cc3)cc2)nc(N2CCOCC2)n1` [Example 270, 1-{4-[(4-benzylpiperidin-1-yl)carbonyl]phenyl}-3-[4-(4-butyl-6-morpholin-4-yl-1,3,5-triazin-2-yl)phenyl]urea], the IC50 on Human mTOR (FLAG-TOR) (read-out: IC50 mTOR) amounted to 160 nM; in experiment [1] (MDA-MB-361, 72 h), 397 nM; on PI3K-α it was 68 nM; on PI3K-γ, 318 nM; in experiment [2], 953 nM.
For the molecule `CCc1nc(-c2ccc(NC(=O)Nc3ccc(C(=O)NC4CCN(C)CC4)cc3)cc2)nc(N2CCOCC2)n1` [Example 271, 4-({[4-(4-ethyl-6-morpholin-4-yl-1,3,5-triazin-2-yl)phenyl]carbamoyl}amino)-N-(1-methylpiperidin-4-yl)benzamide], the IC50 came out at 13 nM at Human mTOR (FLAG-TOR) (read-out: IC50 mTOR); 68 nM in experiment [1] (MDA-MB-361, 72 h); 2 nM on PI3K-α; 23 nM at PI3K-γ; 129 nM in experiment [2].
The like results for `CCCCc1nc(-c2ccc(NC(=O)Nc3ccc(C(=O)NC4CCN(C)CC4)cc3)cc2)nc(N2CCOCC2)n1` [Example 272, 4-({[4-(4-butyl-6-morpholin-4-yl-1,3,5-triazin-2-yl)phenyl]carbamoyl}amino)-N-(1-methylpiperidin-4-yl)benzamide] were, in that order, 30 nM, 70 nM, 5 nM, 54 nM and 340 nM.
For `O=C(Nc1ccncc1)Nc1ccc(-c2nc(N3CCOCC3)nc(N3C4COCC3C(O)C4)n2)cc1` (stereo not drawn) [Example 273, 1-{4-[4-(6-hydroxy-3-oxa-8-azabicyclo[3.2.1]oct-8-yl)-6-morpholin-4-yl-1,3,5-triazin-2-yl]phenyl}-3-pyridin-4-ylurea], the IC50 on Human mTOR (FLAG-TOR) (read-out: IC50 mTOR) amounted to 0.8 nM; in experiment [1] (MDA-MB-361, 72 h), 32 nM; on PI3K-α, 4 nM; at PI3K-γ it was 33 nM; in experiment [2], 80 nM.
On to `CN(C)CCCc1nc(-c2ccc(NC(=O)Nc3ccncc3)cc2)nc(N2CCOCC2)n1` [Example 274, 1-(4-{4-[3-(dimethylamino)propyl]-6-morpholin-4-yl-1,3,5-triazin-2-yl}phenyl)-3-pyridin-4-ylurea], for which the IC50 at Human mTOR (FLAG-TOR) (read-out: IC50 mTOR) came out at 59 nM; in experiment [1] (MDA-MB-361, 72 h) it was 1000 nM; on PI3K-α it was 34 nM; on PI3K-α (listed as 731), 33 nM; on PI3K-γ, 616 nM; at PI3K-γ (listed as 731) it was 413 nM. For the same molecule, the IC50 in experiment [2] (PC3-mm2 cells) and in experiment [2] was 1490 nM each time.
For the molecule `CC(C)NCCCc1nc(-c2ccc(NC(=O)Nc3ccncc3)cc2)nc(N2CCOCC2)n1` [Example 275, 1-[4-(4-{3-[(1-methylethyl)amino]propyl}-6-morpholin-4-yl-1,3,5-triazin-2-yl)phenyl]-3-pyridin-4-ylurea], the IC50 is 70 nM and 69 nM at Human mTOR (FLAG-TOR) (read-out: IC50 mTOR); 3100 nM in experiment [1] (MDA-MB-361, 72 h); 46 nM on PI3K-α; 44 nM at PI3K-α (listed as 732); 711 nM at PI3K-γ; 478 nM at PI3K-γ (listed as 732). For the same molecule, the IC50 in experiment [2] (PC3-mm2 cells) and in experiment [2] was 4310 nM throughout.
Consider `O=C(Nc1ccncc1)Nc1ccc(-c2nc(CCCN3CCCC3)nc(N3CCOCC3)n2)cc1` [Example 276, 1-{4-[4-morpholin-4-yl-6-(3-pyrrolidin-1-ylpropyl)-1,3,5-triazin-2-yl]phenyl}-3-pyridin-4-ylurea], for which the IC50 was 60 nM and 75.5 nM at Human mTOR (FLAG-TOR) (read-out: IC50 mTOR); 1350 nM in experiment [1] (MDA-MB-361, 72 h); 34 nM on PI3K-α; 31.5 nM at PI3K-α (listed as 733); 597 nM on PI3K-γ; 412 nM on PI3K-γ (listed as 733). Moreover, the 50% inhibitory concentration (IC50) in experiment [2] (PC3-mm2 cells) and in experiment [2] was 1650 nM throughout.

Source of the values: patent US20090304692A1, “TRIAZINE COMPOUNDS AS PI3 KINASE AND MTOR INHIBITORS” (Wyeth, priority 2008, published 2009).
